Experimental data published in patent US7776570B2, “L-amino acid amide asymmetric hydrolase and DNA encoding the same” (Mitsubishi Gas Chemical Company, Inc., priority 2004, dated 2010).

What was measured:
[1] = test system: L-amino acid amide asymmetric hydrolase (transformant strain pMCA1/JM109 cells); assay: Asymmetric hydrolysis of racemic amino acid amides by using the transformant pMCA1/JM109; format: biochemical, Xanthobacter flavus; conditions: 0.1% substrate, 50 mM phosphate buffer pH 7.0, 30° C.
Experimental: A medium having a composition as shown in the following Table 3 was prepared, and 200 mL of the medium was poured into 1-L conical flask and sterilized. After that, the medium was added with 50 μg/mL ampicillin and then inoculated with the transformant strain pMCA1/JM109, followed by shaking culture at 37° C. for 15 hours. Subsequently, the culture solution was subjected to centrifugation, to thereby obtain living cells corresponding to 0.1 g of dry cells.
Enzymatic reactions were performed by using a culture solution of the transformant strain pMCA 1/JM109 which had been cultured in the same manner as in Example 7 and a racemic mixture of various amino acid amides as a substrate. Each of the substrate compound was dissolved into 50 mM phosphate buffer (pH 7.0) such that the substrate concentration was adjusted to 0.1%, and the substrate solution was added with the cells to perform an enzymatic reaction at 30° C. […] In any of the reactions, selectivity of hydrolysis is selective to an L-form, and optical purity of the produced L-amino acid was not less than 98% e.e.

X. flavus living cells = assay: Asymmetric hydrolysis of 2-methylcysteine amide racemic mixture by using a wild-type microorganism; format: biochemical, Xanthobacter flavus; conditions: for 2-methylcysteine produced: 30° C., 24 hours, HPLC condition B; for optical purity of the L-amino acid: supernatant, HPLC condition A
Experimental: A medium having a composition as shown in the following Table 5 was prepared, and 200 mL of the medium was poured into a 1-L conical flask and sterilized. After that, X. flavus was inoculated thereto and shaking culture was performed at 30° C. for 170 hours. Subsequently, the culture solution was subjected to centrifugation, to thereby obtain living cells corresponding to 0.1 g of dry cells.
10.0 g (58.6 mmol) of racemic mixture of 2-methylcysteine amide hydrochloride was dissolved into 300 mL of 50 mM phosphate buffer (pH 7.0). After that, the mixture was poured into a 500-mL flask, which was added with an aqueous manganese chloride solution such that the concentration of a divalent Mn ion became 10 ppm, and further added with the living cells corresponding to 0.01 g of dry cells, followed by stirring culture at 30° C. for 24 hours under a nitrogen stream to allow a hydrolysis reaction to proceed. After completion of the reaction, the reaction solution was subjected to centrifugation to remove the cells, and the supernatant was analyzed under the HPLC condition B as shown in the following Table 6.
10 L of the culture solution obtained after culture in the medium composition in Comparative Example 1 was subjected to centrifugation, to thereby obtain living cells corresponding to 5 g of dry cells of X. flavus. 10.0 g (58.6 mmol) of a racemic mixture of 2-methylcysteine amide hydrochloride was dissolved into 300 mL of 50 mM phosphate buffer (pH 7.0). After that, the mixture was poured into 500-mL flask, which was added with an aqueous manganese chloride solution such that the concentration of a divalent Mn ion became 10 ppm, and further added with the living cells corresponding to 5 g of dry cells, followed by stirring culture at 30° C. for 24 hours under a nitrogen stream to allow a hydrolysis reaction to proceed. After completion of the reaction, the reaction solution was subjected to centrifugation to remove the cells therefrom, and the supernatant was analyzed under the HPLC condition B. As a result, it was confirmed that 28.2 mmol of 2-methylcysteine was produced. In addition, the supernatant was analyzed under the HPLC condition A, and as a result, the optical purity of the L-amino acid was not less than 98% e.e.
A biochemical asymmetric hydrolysis reaction was performed in the same manner as in Comparative Example 2 except that the aqueous manganese chloride solution was not added. The reaction was performed at 30° C. for 24 hours. After completion of the reaction, the reaction solution was subjected to centrifugation to remove the cells therefrom, and then the supernatant was analyzed under the HPLC condition B. As a result, it was confirmed that 13.9 mmol of 2-methylcysteine was produced. In addition, the supernatant was analyzed under the HPLC condition A, and as a result, the optical purity of the L-amino acid was not less than 98% e.e.

[2] = substrate weight/dry cell weight 0.01, reaction time 24 hr
[3] = substrate weight/dry cell weight 0.01, reaction time 5 hr
[4] = 5 g dry cells, no manganese chloride added
[5] = substrate weight/dry cell weight 0.1, reaction time 24 hr

In the case of Allicin amide ethylene acetal, the Reaction rate [1, 2] was 44.3%.
`NC(=O)[C@@H](N)Cc1ccccc1` (racemic) [Phenylalanine amide] showed a Reaction rate [1, 3] of 47.8%.
With `C[C@](N)(CS)C(N)=O.Cl` (racemic) [2-methylcysteine amide, 2-methylcysteine amide hydrochloride] the 2-methylcysteine produced (X. flavus living cells; 0.01 g dry cells, 58.6 mmol substrate, 10 ppm divalent Mn ion) was “no 2-methylcysteine as a product was observed”, the 2-methylcysteine produced (X. flavus living cells; 5 g dry cells, 58.6 mmol substrate, 10 ppm divalent Mn ion) was 28.2 mmol and the “optical purity of the L-amino acid” value (X. flavus living cells; 5 g dry cells, 10 ppm divalent Mn ion) was “not less than 98 % e.e”. The 2-methylcysteine produced (X. flavus living cells; [4]) was 13.9 mmol and the “optical purity of the L-amino acid” value (X. flavus living cells; [4]) was “not less than 98 % e.e”.
With `CC(C)[C@H](N)C(N)=O` (racemic) [Valine amide] the Reaction rate [1, 2] was 44.3%.
`CC(C)(C)[C@H](N)C(N)=O` (racemic) [t-leucine amide] was tested, and the Reaction rate [1, 5] was 44.4%.
`NC(=O)C(N)c1ccccc1` (racemic) [Phenylglycine amide] showed a Reaction rate [1, 3] of 48.8%.
Work on `CC(C)(S)[C@H](N)C(N)=O` (racemic) [penicillamine amide] yielded a Reaction rate [1, 3] of 44.9%.
In the case of `CC1(C)SCNC1C(N)=O` (stereo not shown) [5,5-dimethylthiazolidin-4-carboxylate amide], the Reaction rate [1, 5] was 47.0%.
`CCC(N)C(N)=O` (stereo not shown) [2-amino butyrate amide] was tested, and the Reaction rate ([1]; substrate weight/dry cell weight 0.1, reaction time 5 hr) was 49.2%.
